The text below walks through data of ChEMBL document CHEMBL4321822 (J Med Chem, 2019).

This assay has as its target T1, Acetylcholinesterase (Mus musculus, UniProt P21836).
T1 sequence (P21836 whole entry): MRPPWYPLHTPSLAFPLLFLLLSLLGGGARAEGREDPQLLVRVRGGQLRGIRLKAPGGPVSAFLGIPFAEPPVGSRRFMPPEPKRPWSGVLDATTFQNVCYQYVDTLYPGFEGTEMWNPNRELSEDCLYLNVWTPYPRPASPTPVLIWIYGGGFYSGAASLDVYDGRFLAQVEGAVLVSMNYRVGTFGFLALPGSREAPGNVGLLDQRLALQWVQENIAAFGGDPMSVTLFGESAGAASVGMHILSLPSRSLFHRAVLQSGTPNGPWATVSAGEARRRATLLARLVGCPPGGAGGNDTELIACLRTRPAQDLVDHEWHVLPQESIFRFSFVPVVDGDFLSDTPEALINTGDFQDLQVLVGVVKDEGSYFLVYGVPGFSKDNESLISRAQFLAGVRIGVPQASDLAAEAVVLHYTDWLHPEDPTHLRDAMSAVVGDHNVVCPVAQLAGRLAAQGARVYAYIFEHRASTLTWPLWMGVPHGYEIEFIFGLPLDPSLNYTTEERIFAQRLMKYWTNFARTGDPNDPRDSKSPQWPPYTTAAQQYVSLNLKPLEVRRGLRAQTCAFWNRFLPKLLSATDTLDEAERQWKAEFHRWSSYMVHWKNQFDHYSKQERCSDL
The experiment in a line: Inhibition of mouse AChE using acetylthiocholine as substrate measured after 300 secs by Ellman's method. A general note: In Ellman's method for cholinesterases, released thiocholine reacts with DTNB.

Usually IC50 stands for the midpoint of a concentration-inhibition curve. Compound `COCCN(CC1CCCN(Cc2ccccc2)C1)S(=O)(=O)c1ccc2ccccc2c1` (stereo unspecified) showed an IC50 above 10 µM.
